We go through 1 substance from patent US20110151031A1, “COMPOSITIONS AND METHODS FOR UTILIZING THE SAME” (DBC, LLC, priority 2008, published 2011).

A short description of experiment [1]: DPPH radical scavenging test. To be noted: Example 6 at a dose of 0.1 mg/ml; absorbance at 520 nm. It is filed as biochemical. As to the method: (§1) In this example, free radical-scavenging ability was determined as an indicator of antioxidant action. Specifically, free radicals produced by xanthine oxidase were determined by 1,1-diphenyl-2-picrylhydrayil (DPPH, Aldrich). First, xanthine oxidase (Aldrich) was dissolved in 0.01 M phosphate buffer. Hypoxanthine was added to this solution, and the solution was warmed at 37° C. to generate free radicals. To this solution, the composition of Example 6 was added. Further, 0.1 M DPPH solution was added to determine absorbance at 520 nm. Superoxide dismutase (SOD) activity was also determined using Electron Spin Resonance (ESR) in xanthine and xanthine-odixase system. In both cases, vitamin E was used as a positive control.

A short description of experiment [2]: Superoxide dismutase (SOD) activity by ESR in xanthine and xanthine-oxidase system. It is filed as biochemical. The procedure:
as §1

For vitamin E [VitaminE], the “free radical-scavenging ability (DPPH)” value in experiment [1] came to 460 units/g. This substance also came in with an SOD activity in experiment [2] of 90 units/g.
